From patent US9598423B2 (BRISTOL-MYERS SQUIBB COMPANY, priority 2013, dated 2017)

What was measured:
CK1δ = CK1δ (Homo sapiens (Human), UniProt P48730); assay: CK1δ kinase assay (Caliper LABCHIP electrophoretic separation of fluoresceinated peptide substrate and product); type: biochemical; conditions: 200 pM CK1δ, 50 μM ATP, 1.5 μM peptide substrate, 22 hours at room temperature; read-out: CK1δ (IC50)
Method: (§1) CK1ε and CK1δ Kinase Assays
(§2) The kinase assay was performed in V-bottom 384-well plates. […] The reaction was incubated at room temperature for 22 hours and terminated by adding 45 μl of 35 mM EDTA to each sample. The reaction mixture was analyzed on the Caliper LABCHIP®3000 (Caliper, Hopkinton, Mass.) by electrophoretic separation of the unphosphorylated substrate and phosphorylated product. […] Compounds were dissolved at 10 mM in dimethylsulfoxide (DMSO) and evaluated at eleven concentrations. IC50 values were derived by non-linear regression analysis.

CK1ε = CK1ε (Homo sapiens (Human), UniProt P49674); assay: CK1ε kinase assay (Caliper LABCHIP electrophoretic separation of fluoresceinated peptide substrate and product); type: biochemical; conditions: 200 pM CK1ε, 50 μM ATP, 1.5 μM peptide substrate, 22 hours at room temperature; read-out: CK1ε (IC50)
Method: as §1, §2

Sequence of CK1ε (P49674 whole entry): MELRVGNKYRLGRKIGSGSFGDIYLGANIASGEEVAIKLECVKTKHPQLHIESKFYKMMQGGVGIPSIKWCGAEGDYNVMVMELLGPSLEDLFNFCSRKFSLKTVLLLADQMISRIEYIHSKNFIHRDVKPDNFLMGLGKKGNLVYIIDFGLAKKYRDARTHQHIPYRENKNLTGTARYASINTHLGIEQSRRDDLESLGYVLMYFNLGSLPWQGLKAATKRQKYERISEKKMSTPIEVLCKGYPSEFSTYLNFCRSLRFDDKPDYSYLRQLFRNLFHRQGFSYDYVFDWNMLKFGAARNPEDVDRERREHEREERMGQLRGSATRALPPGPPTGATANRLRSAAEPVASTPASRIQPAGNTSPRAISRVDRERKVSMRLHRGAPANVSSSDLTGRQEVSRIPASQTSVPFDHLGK
Sequence of CK1δ (P48730 whole entry): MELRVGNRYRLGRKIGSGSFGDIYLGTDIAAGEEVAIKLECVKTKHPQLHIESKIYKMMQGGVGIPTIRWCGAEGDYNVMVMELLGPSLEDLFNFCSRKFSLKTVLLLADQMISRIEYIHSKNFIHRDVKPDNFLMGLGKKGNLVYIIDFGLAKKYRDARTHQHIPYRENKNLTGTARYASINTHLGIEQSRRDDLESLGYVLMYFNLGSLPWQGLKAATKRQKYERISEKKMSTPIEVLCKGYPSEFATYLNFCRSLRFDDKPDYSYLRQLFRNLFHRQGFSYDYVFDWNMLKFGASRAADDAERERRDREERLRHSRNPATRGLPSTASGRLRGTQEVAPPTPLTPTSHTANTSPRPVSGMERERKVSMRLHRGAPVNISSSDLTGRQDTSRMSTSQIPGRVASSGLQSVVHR

CC1Cn2nc(-c3ccc(F)c(Cl)c3)c(C(N)=O)c2CN1C(=O)Nc1ccc(C#N)cc1 (single isomer, unassigned) [Compound 329, 2-(3-Chloro-4-fluorophenyl)-N^5-(4-cyanophenyl)-6-methyl-6,7-dihydropyrazolo[1,5-a]pyrazine-3,5(4H)-dicarboxamide]
IC50 (CK1δ): 0.01 to 10 nM
IC50 (CK1ε): 0.01 to 10 nM

CC1Cn2nc(-c3ccc(F)c(Cl)c3)c(C(N)=O)c2CN1C(=O)Nc1ccc(C#N)cc1 (single isomer, unassigned) [Compound 330, 2-(3-Chloro-4-fluorophenyl)-N^5-(4-cyanophenyl)-6-methyl-6,7-dihydropyrazolo[1,5-a]pyrazine-3,5(4H)-dicarboxamide]
IC50 (CK1δ): 0.01 to 10 nM
IC50 (CK1ε): 0.01 to 10 nM

CC1Cn2nc(-c3cccc(Cl)c3)c(C(N)=O)c2CN1C(=O)Nc1ccc(C#N)cc1 (single isomer, unassigned) [Compound 331, 2-(3-Chlorophenyl)-N^5-(4-cyanophenyl)-6-methyl-6,7-dihydropyrazolo[1,5-a]pyrazine-3,5(4H)-dicarboxamide]
IC50 (CK1δ): 0.01 to 10 nM
IC50 (CK1ε): 0.01 to 10 nM

CC1Cn2nc(-c3cccc(Cl)c3)c(C(N)=O)c2CN1C(=O)Nc1ccc(C#N)cc1 (single isomer, unassigned) [Compound 332, 2-(3-Chlorophenyl)-N^5-(4-cyanophenyl)-6-methyl-6,7-dihydropyrazolo[1,5-a]pyrazine-3,5(4H)-dicarboxamide]
IC50 (CK1δ): 0.01 to 10 nM
IC50 (CK1ε): 0.01 to 10 nM

CC1Cn2nc(-c3ccc(Cl)c(Cl)c3)c(C(N)=O)c2CN1C(=O)Nc1ccc(C#N)cc1 (single isomer, unassigned) [Compound 333, N^5-(4-Cyanophenyl)-2-(3,4-dichlorophenyl)-6-methyl-6,7-dihydropyrazolo[1,5-a]pyrazine-3,5(4H)-dicarboxamide]
IC50 (CK1δ): 0.01 to 10 nM
IC50 (CK1ε): 0.01 to 10 nM

CC1Cn2nc(-c3ccc(Cl)c(Cl)c3)c(C(N)=O)c2CN1C(=O)Nc1ccc(C#N)cc1 (single isomer, unassigned) [Compound 334, N^5-(4-Cyanophenyl)-2-(3,4-dichlorophenyl)-6-methyl-6,7-dihydropyrazolo[1,5-a]pyrazine-3,5(4H)-dicarboxamide]
IC50 (CK1δ): 0.01 to 10 nM
IC50 (CK1ε): 0.01 to 10 nM

N#Cc1ccc(NC(=O)N2Cc3c(C(N)=O)c(-c4ccc(F)c(Cl)c4)nn3CC2C(F)(F)F)cc1 (single isomer, unassigned) [Compound 335, 2-(3-Chloro-4-fluorophenyl)-N^5-(4-cyanophenyl)-6-(trifluoromethyl)-6,7-dihydropyrazolo[1,5-a]pyrazine-3,5(4H)-dicarboxamide]
IC50 (CK1δ): 100 to 2000 nM
IC50 (CK1ε): 100 to 2000 nM

N#Cc1ccc(NC(=O)N2Cc3c(C(N)=O)c(-c4ccc(F)c(Cl)c4)nn3CC2C(F)(F)F)cc1 (single isomer, unassigned) [Compound 336, 2-(3-Chloro-4-fluorophenyl)-N^5-(4-cyanophenyl)-6-(trifluoromethyl)-6,7-dihydropyrazolo[1,5-a]pyrazine-3,5(4H)-dicarboxamide]
IC50 (CK1δ): 0.01 to 10 nM
IC50 (CK1ε): 0.01 to 10 nM

N#Cc1ccc(NC(=O)N2Cc3c(C(N)=O)c(-c4ccc(F)c(Cl)c4)nn3CC2C2CC2)cc1 (single isomer, unassigned) [Compound 342]
IC50 (CK1δ): 0.01 to 10 nM
IC50 (CK1ε): 0.01 to 10 nM

N#Cc1ccc(NC(=O)N2Cc3c(C(N)=O)c(-c4ccc(F)c(Cl)c4)nn3C(C(=O)NC3CCOCC3)C2)cc1 (single isomer, unassigned) [Compound A28, 2-(3-Chloro-4-fluorophenyl)-N^5-(4-cyanophenyl)-N^7-(tetrahydro-2H-pyran-4-yl)-6,7-dihydropyrazolo[1,5-a]pyrazine-3,5,7(4H)-tricarboxamide]
IC50 (CK1δ): 10 to 100 nM
IC50 (CK1ε): 10 to 100 nM

NC(=O)c1c(-c2cccc(F)c2)nn2c1CN(C(=O)Nc1cncnc1)CC2 [Compound 84, 2-(3-Fluorophenyl)-N^5-(pyrimidin-5-yl)-6,7-dihydropyrazolo[1,5-a]pyrazine-3,5(4H)-dicarboxamide]
IC50 (CK1δ): 0.01 to 10 nM

Cc1ccc(NC(=O)N2CCn3nc(-c4cccc(F)c4)c(C(N)=O)c3C2)cn1 [Compound 86, 2-(3-Fluorophenyl)-N^5-(6-methylpyridin-3-yl)-6,7-dihydropyrazolo[1,5-a]pyrazine-3,5(4H)-dicarboxamide]
IC50 (CK1δ): 0.01 to 10 nM

NC(=O)c1c(-c2cccc(F)c2)nn2c1CN(C(=O)Nc1ccc(F)nc1)CC2 [Compound 87, 2-(3-Fluorophenyl)-N^5-(6-fluoropyridin-3-yl)-6,7-dihydropyrazolo[1,5-a]pyrazine-3,5(4H)-dicarboxamide]
IC50 (CK1δ): 0.01 to 10 nM

NC(=O)c1c(-c2cccc(F)c2)nn2c1CN(C(=O)Nc1ccc(OC(F)F)cc1)CC2 [Compound 89, N^5-(4-(Difluoromethoxy)phenyl)-2-(3-fluorophenyl)-6,7-dihydropyrazolo[1,5-a]pyrazine-3,5(4H)-dicarboxamide]
IC50 (CK1δ): 0.01 to 10 nM

NC(=O)c1c(-c2cccc(F)c2)nn2c1CN(C(=O)Nc1ccnc(Cl)c1)CC2 [Compound 90, N^5-(2-Chloropyridin-4-yl)-2-(3-fluorophenyl)-6,7-dihydropyrazolo[1,5-a]pyrazine-3,5(4H)-dicarboxamide]
IC50 (CK1δ): 0.01 to 10 nM

CC(=O)N1CCC(NC(=O)N2CCn3nc(-c4cccc(F)c4)c(C(N)=O)c3C2)CC1 [Compound 97]
IC50 (CK1δ): 0.01 to 10 nM

NC(=O)c1c(-c2cccc(F)c2)nn2c1CN(C(=O)NC1CCN(S(=O)(=O)C3CC3)CC1)CC2 [Compound 102, N^5-(1-(Cyclopropylsulfonyl)piperidin-4-yl)-2-(3-fluorophenyl)-6,7-dihydropyrazolo[1,5-a]pyrazine-3,5(4H)-dicarboxamide]
IC50 (CK1δ): 0.01 to 10 nM

CC(C)(C)NC(=O)N1CCn2nc(-c3cc(F)cc(F)c3)c(C(N)=O)c2C1 [Compound 105, N^5-(tert-Butyl)-2-(3,5-difluorophenyl)-6,7-dihydropyrazolo[1,5-a]pyrazine-3,5(4H)-dicarboxamide]
IC50 (CK1δ): 0.01 to 10 nM

COc1cc(F)cc(-c2nn3c(c2C(N)=O)CN(C(=O)NC(C)(C)C)CC3)c1 [Compound 137, N^5-(tert-Butyl)-2-(3-fiuoro-5-methoxyphenyl)-6,7-dihydropyrazolo[1,5-a]pyrazine-3,5(4H)-dicarboxamide]
IC50 (CK1δ): 0.01 to 10 nM

CSc1cccc(-c2nn3c(c2C(N)=O)CN(C(=O)NC(C)(C)C)CC3)c1 [Compound 150, N^5-(tert-Butyl)-2-(3-(methylthio)phenyl)-6,7-dihydropyrazolo[1,5-a]pyrazine-3,5(4H)-dicarboxamide]
IC50 (CK1δ): 0.01 to 10 nM

N#Cc1ccc(NC(=O)N2Cc3c(C(N)=O)c(-c4ccc(F)c(Cl)c4)nn3[C@H](C(F)F)C2)cc1Cl [Compound A18, (S)—N^5-(3-Chloro-4-cyanophenyl)-2-(3-chloro-4-fluorophenyl)-7-(difluoromethyl)-6,7-dihydropyrazolo[1,5-a]pyrazine-3,5(4H)-dicarboxamide]
IC50 (CK1δ): 0.01 to 10 nM

N#Cc1ccc(NC(=O)N2Cc3c(C(N)=O)c(-c4ccc(F)c(Cl)c4)nn3C(C(F)F)C2)cc1Cl (stereo not drawn) [Compound A19, N^5-(3-Chloro-4-cyanophenyl)-2-(3-chloro-4-fluorophenyl)-7-(difluoromethyl)-6,7-dihydropyrazolo[1,5-a]pyrazine-3,5(4H)-dicarboxamide]
IC50 (CK1δ): 0.01 to 10 nM

N#Cc1ccc(NC(=O)N2Cc3c(C(N)=O)c(-c4ccc(F)c(Cl)c4)nn3[C@@H](C(F)F)C2)cc1F [Compound A23, (R)-2-(3-Chloro-4-fluorophenyl)-N^5-(4-cyano-3-fluorophenyl)-7-(difluoromethyl)-6,7-dihydropyrazolo[1,5-a]pyrazine-3,5(4H)-dicarboxamide]
IC50 (CK1δ): 0.01 to 10 nM
